Data set [1] can be described thus: Resistance index, ratio of IC50 for cytotoxicity against doxorubicin-resistant human K562R cells to IC50 for cytotoxicity against human K562 cells. It counts as functional.
In data set [2] the test system is K562R. The following applies: Homo sapiens.
Description: Inhibition of P-gp in doxorubicin-resistant human K562R cells assessed as rhodamine efflux by measuring mean fluorescence intensity at 10 uM incubated for 1 hr by flow cytometry (Rvb = 0.47 No_unit)
For data set [3], the system named is K562R. Briefly: Inhibition of P-gp in doxorubicin-resistant human K562R cells assessed as rhodamine influx by measuring ratio of rhodamine mean fluorescence intensity in presence and absence of compound at 10 uM incubated for 20 mins by flow cytometry. It counts as cell-based. Background: In flow cytometry, cells or beads pass a laser one at a time.
Data set [4] relates to K562R. Briefly: Inhibition of P-gp in doxorubicin-resistant human K562R cells assessed as rhodamine influx by measuring mean fluorescence intensity at 10 uM incubated for 20 mins by flow cytometry. It counts as cell-based.
Data set [5] in a line: Cytotoxicity against human K562 cells incubated for 72 hrs by CellTiter 96 aqueous one solution reagent based assay. Type of data set: functional, cell-based.
Data set [6] in a line: Cytotoxicity against doxorubicin-resistant human K562R cells incubated for 72 hrs by CellTiter 96 aqueous one solution reagent based assay. Type of data set: functional, cell-based. The following applies: k-562r.
Data set [7] in a line: Cytotoxicity against human MRC5 cells incubated for 72 hrs by CellTiter 96 aqueous one solution reagent based assay. Type of data set: toxicity, cell-based. The following applies: mrc5, 72 h.
Data set [8] has as its system K562R. Briefly: Inhibition of P-gp in doxorubicin-resistant human K562R cells assessed as rhodamine influx by measuring ratio of rhodamine mean fluorescence intensity in presence and absence of compound at 5 uM incubated for 20 mins by flow cytometry. Type of data set: cell-based.
In data set [9] the test system is K562R. Briefly: Inhibition of P-gp-mediated multidrug resistance in doxorubicin-resistant human K562R cells assessed as potentiation of 50 nM vinorelbine-induced cytotoxicity at 2 uM incubated for 72 hrs by CellTiter 96 aqueous one solution reagent based assay. Type of data set: cell-based.
The nature of data set [10]: Cytotoxicity against doxorubicin-resistant human K562R cells assessed as reduction in cell viability at 2 uM incubated for 72 hrs by CellTiter 96 aqueous one solution reagent based assay. Type of data set: functional, K562.
For data set [11], the species on record is Homo sapiens. The experiment in a line: Stimulation of recombinant human P-gp ATPase activity at 10 uM by Pgp-Glo assay.
Data set [12] has as its system K562R. The experiment in a line: Inhibition of P-gp-mediated multidrug resistance in doxorubicin-resistant human K562R cells assessed as potentiation of 5 nM vinorelbine-induced cytotoxicity by measuring cell viability at 1 uM incubated for 72 hrs by CellTiter 96 aqueous one solution reagent based assay.
Data set [13] is filed under the species Homo sapiens. Briefly: Inhibition of recombinant human P-gp ATPase activity at 40 uM by Pgp-Glo assay.
Data set [14] deals with K562R. The experiment in a line: Inhibition of P-gp-mediated multidrug resistance in doxorubicin-resistant human K562R cells assessed as potentiation of 1 uM doxorubicin-induced cytotoxicity by measuring cell death level at 2 uM incubated for 72 hrs by CellTiter 96 aqueous one solution reagent based assay. Also on record: scale not given: the % may be the effect or the level left.

Another data set deals with K562. The experiment in a line: Potentiation of 0.1 to 1 nM vinorelbine-induced cytotoxicity by measuring reduction in cell viability against human K562 cells at 2 uM incubated for 72 hrs by CellTiter 96 aqueous one solution reagent based assay. It counts as functional.
Data set [15] can be described thus: Cytotoxicity against doxorubicin-resistant human K562R cells assessed as reduction in cell viability at 1 uM incubated for 72 hrs by CellTiter 96 aqueous one solution reagent based assay. Type of data set: functional, K562.

SMILES strings stand for the structures. The source made the active and inactive calls. The rule behind the calls is not given here.

For the molecule `CCOC(=O)[C@@H]1Cc2c([nH]c3ccccc23)[C@@](C(=O)OC)(c2cc3c(cc2OC)N(C)[C@H]2[C@@](O)(C(=O)OC)[C@H](OC(C)=O)[C@]4(CC)C=CCN5CC[C@]32[C@@H]54)C[C@H]2C=C(CC)CN(C2)C1`, the “Ratio IC50” value in [1] was 37. Further, the Flu intensity in the data set on K562R [2] came out at 0.77; in the data set on K562R [4], 5.3. In the data set on K562R [3], the Ratio turned out to be 2.9. The IC50 is 0.08 µmol in [5] and 3 µmol in [6].

In the case of `CCC1=C[C@H]2CN(/C=C(/C(=O)OCc3ccccc3)Cc3c([nH]c4ccccc34)[C@@](C(=O)OC)(c3cc4c(cc3OC)N(C)[C@H]3[C@@](O)(C(=O)OC)[C@H](OC(C)=O)[C@]5(CC)C=CCN6CC[C@]43[C@@H]65)C2)C1`, in [1], the “Ratio IC50” value was >100. Further, the results for the Flu intensity in the data set on K562R [2] and with K562R [4] were 0.48 and 2.3, respectively. The Ratio in the data set on K562R [3] turned out to be 1.3. The results for the IC50 in [5] and in [6] were 0.1 µmol and > 10 µmol, respectively.

In the case of `COc1cccc2c1C(=O)c1c(O)c3c(c(O)c1C2=O)C[C@@](O)(C(=O)CO)C[C@@H]3O[C@H]1C[C@H](N)[C@H](O)[C@H](C)O1` [DOXORUBICIN], the “Ratio IC50” value in data set [1] was found to be 745. Also, the IC50 came out at 0.047 µmol in data set [5] and 35 µmol in data set [6].

Turning to `CCC1=C[C@H]2CN(C1)C1=C(Cc3c([nH]c4ccccc34)[C@@](C(=O)OC)(c3cc4c(cc3OC)N(C)[C@H]3[C@@](O)(C(=O)OC)[C@H](OC(C)=O)[C@]5(CC)C=CCN6CC[C@]43[C@@H]65)C2)C(=O)N(C(C)C)C1=O`, the “Ratio IC50” value in [1] is on record as 2.3. Moreover, the Flu intensity in the data set on K562R [2] is 2.9; with K562R [4], 7.6. Further, the Activity entry in data set [7] was “Toxic”. For the same molecule, the Ratio in the data set on K562R [3] amounted to 4.2. Besides, the IC50 in [5] came to 2.6 µmol; in data set [6] it was 6 µmol. In addition, the inhibition result with K562R [8] is “Active”.

In the case of `CCC1=C[C@H]2CN(C1)/C(C(=O)NC(C)C)=C(/C(=O)OC)Cc1c([nH]c3ccccc13)[C@@](C(=O)OC)(c1cc3c(cc1OC)N(C)[C@H]1[C@@](O)(C(=O)OC)[C@H](OC(C)=O)[C@]4(CC)C=CCN5CC[C@]31[C@@H]54)C2`, the “Ratio IC50” value in [1] worked out at 50. Also, the Flu intensity in the data set on K562R [2] is 1.39; in the data set on K562R [4] it was 2.9. Also, the Ratio in the data set on K562R [3] was determined as 1.6. Further, the IC50 came to 0.04 µmol in [5] and 2 µmol in data set [6].

Turning to `CCC1=C[C@H]2CN(C1)/C(C(=O)NCc1ccccc1)=C(/C(=O)OC)Cc1c([nH]c3ccccc13)[C@@](C(=O)OC)(c1cc3c(cc1OC)N(C)[C@H]1[C@@](O)(C(=O)OC)[C@H](OC(C)=O)[C@]4(CC)C=CCN5CC[C@]31[C@@H]54)C2`, the “Ratio IC50” value in data set [1] is listed as 150. In addition, the Flu intensity in the data set with K562R [2] turned out to be 0.55; in the data set on K562R [4], 2.2. Further, the Ratio in the data set on K562R [3] was 1.2. Also, the IC50 in data set [5] is 0.04 µmol; in data set [6] it was 6 µmol.

Take `C#Cc1ccc2[nH]c3c(c2c1)C/C(C(=O)OC)=C\N1CC(CC)=C[C@@H](C1)C[C@]3(C(=O)OC)c1cc2c(cc1OC)N(C)[C@H]1[C@@](O)(C(=O)OC)[C@H](OC(C)=O)[C@]3(CC)C=CCN4CC[C@]21[C@@H]43`: the “Ratio IC50” value in [1] turned out to be 5. Also, the results for the Flu intensity in the data set on K562R [2] and in the data set with K562R [4] were 0.45 and 1.6, respectively. Besides, the Ratio with K562R [3] stood at 0.9. Further, the IC50 in [5] came to 0.6 µmol; in data set [6], 3 µmol.

As for `CCC1=C[C@H]2CN(C1)C1=C(Cc3c([nH]c4ccccc34)[C@@](C(=O)OC)(c3cc4c(cc3OC)N(C)[C@H]3[C@@](O)(C(=O)OC)[C@H](OC(C)=O)[C@]5(CC)C=CCN6CC[C@]43[C@@H]65)C2)C(=O)N(CC(C)C)C1=O`, the “Ratio IC50” value in data set [1] was found to be 5.5. In addition, the Flu intensity in the data set with K562R [2] is 7.72; with K562R [4] it was 36. Also, the Activity result in data set [7] is “Toxic”. In addition, in the data set on K562R [3], the Ratio was found to be 20. The IC50 in data set [5] amounted to 0.45 µmol; in [6], 2.5 µmol. Further, the inhibition entry in the data set on K562R [8] is “Active”.

With `CCOC(=O)/C1=C/N2CC(CC)=C[C@@H](C2)C[C@](C(=O)OC)(c2cc3c(cc2OC)N(C)[C@H]2[C@@](O)(C(=O)OC)[C@H](OC(C)=O)[C@]4(CC)C=CCN5CC[C@]32[C@@H]54)c2[nH]c3ccccc3c2C1`, the “Ratio IC50” value in data set [1] was >100. Moreover, the Flu intensity with K562R [2] stood at 0.64; with K562R [4] it was 7.2. Moreover, the Ratio with K562R [3] was determined as 4. The IC50 was 0.1 µmol in data set [5] and > 10 µmol in data set [6].

Regarding `CC[C@]1(O)C[C@@H]2CN(CCc3c([nH]c4ccccc34)[C@@](C(=O)OC)(c3cc4c(cc3OC)N(C)[C@H]3[C@@](O)(C(=O)OC)[C@H](OC(C)=O)[C@]5(CC)C=CCN6CC[C@]43[C@@H]65)C2)C1` [VINBLASTINE], in data set [1], the “Ratio IC50” value is 120. For the same molecule, the Flu intensity in the data set on K562R [2] was found to be 0.42; in the data set on K562R [4], 1.2. Moreover, the Activity result in data set [7] is on record as “Toxic”. Besides, the Ratio with K562R [3] is 0.7. Moreover, the IC50 in data set [5] is 0.004 µmol; in data set [6] it was 0.48 µmol.

Consider `CCC1=C[C@@H]2CN(C1)Cc1c([nH]c3ccccc13)[C@@](C(=O)OC)(c1cc3c(cc1OC)N(C)[C@H]1[C@@](O)(C(=O)OC)[C@H](OC(C)=O)[C@]4(CC)C=CCN5CC[C@]31[C@@H]54)C2` [VINORELBINE], for which the “Ratio IC50” value in data set [1] was 137. The Flu intensity in the data set with K562R [2] came out at 0.42; in the data set with K562R [4], 1.6. For the same molecule, the Activity result in data set [7] is reported as “Toxic”. Moreover, the Ratio with K562R [3] was determined as 0.9. For the same molecule, the values for the IC50 in data set [5] and in data set [6] were 0.003 µmol and 0.41 µmol, respectively.

With `CCC1=C[C@H]2CN(/C=C(/C(=O)OC)Cc3c([nH]c4ccc(Br)cc34)[C@@](C(=O)OC)(c3cc4c(cc3OC)N(C)[C@H]3[C@@](O)(C(=O)OC)[C@H](OC(C)=O)[C@]5(CC)C=CCN6CC[C@]43[C@@H]65)C2)C1`, the “Ratio IC50” value in data set [1] is on record as 6. Further, the Flu intensity in the data set with K562R [2] was found to be 0.47; with K562R [4], 2.1. Moreover, the Ratio with K562R [3] is 1.2. Further, the IC50 in data set [5] amounted to 0.5 µmol; in [6], 3 µmol.

Take `CCC1=C[C@H]2CN(C1)C[C@H](C(=O)OCc1ccccc1)Cc1c([nH]c3ccccc13)[C@@](C(=O)OC)(c1cc3c(cc1OC)N(C)[C@H]1[C@@](O)(C(=O)OC)[C@H](OC(C)=O)[C@]4(CC)C=CCN5CC[C@]31[C@@H]54)C2`: in data set [1], the “Ratio IC50” value is listed as >25. Besides, the Flu intensity in the data set with K562R [2] stood at 0.48; in the data set with K562R [4] it was 2.2. Also, the Ratio in the data set on K562R [3] was 1.2. Also, the IC50 in [5] was 0.4 µmol; in data set [6], > 10 µmol.

`C#Cc1ccc2[nH]c3c(c2c1)C/C(C(=O)OC)=C(/C(=O)NC(C)C)N1CC(CC)=C[C@@H](C1)C[C@]3(C(=O)OC)c1cc2c(cc1OC)N(C)[C@H]1[C@@](O)(C(=O)OC)[C@H](OC(C)=O)[C@]3(CC)C=CCN4CC[C@]21[C@@H]43`: the “Ratio IC50” value in data set [1] was 4. Further, the Flu intensity in the data set with K562R [2] worked out at 0.51; in the data set with K562R [4], 1.8. Besides, the Ratio with K562R [3] is 1. For the same molecule, the IC50 came to 0.6 µmol in data set [5] and 2.5 µmol in data set [6].

For the molecule `CCC1=C[C@H]2CN(C1)C1=C(Cc3c([nH]c4ccccc34)[C@@](C(=O)OC)(c3cc4c(cc3OC)N(C)[C@H]3[C@@](O)(C(=O)OC)[C@H](OC(C)=O)[C@]5(CC)C=CCN6CC[C@]43[C@@H]65)C2)C(=O)N(Cc2ccccc2)C1=O`, the inhibition result in the data set on K562R [9], in the data set filed under Homo sapiens [13] and in the data set on K562R [8] was “Active” throughout. Moreover, the Activity in data set [10] was 20%; in the data set on K562R [12] it was 40%; in data set [7], “Toxic”; with K562R [14] it was 90%; in the data set on K562, 20%; in data set [15], 20%. Besides, the “Ratio IC50” value in [1] was 5.5. Also, the outcome in the data set filed under Homo sapiens [11] was Active. In addition, the Flu intensity with K562R [2] was 1.89; in the data set with K562R [4], 11.3. Moreover, in the data set with K562R [3], the Ratio turned out to be 6.3. The IC50 in [5] was 0.9 µmol; in data set [6], 5 µmol.

These data come from ChEMBL document CHEMBL3860099, “Original Vinca Derivatives: From P-Glycoprotein Substrates to P-Glycoprotein Inhibitors” (J Med Chem, 2016).
